# According to US5279824A, “Pharmaceutical formulation containing heparin and endo-beta-glucuronidase, useful for the treatment of thrombosis” (Merck Patent GmbH, priority 1988, dated 1994):
# What was measured:
# leech hyaluronidase [1] = test: Reducing sugar assay of leech hyaluronidase preincubated with heparin; assay type: biochemical; details: heparin up to 2500 USP/ml; preincubated one hour at 25° C.; enzyme 68 IU/ml; FIG. 1
# Description: (§1) Leech hyaluronidase (68 IU/ml was preincubated for one hour at 25° C. in the presence of concentrations of heparin (0-2500 USP/1 ml) in 20 mM methanesulphonic acid (MES), 0.1M NaCl, pH 5.0 buffer and then added to hyaluronic acid (5 mg/ml) and the incubation continued for one hour at 37° C. The generation of reducing sugars was determined by terminating the reactions by the addition of 1:1 3,5-dinitrosalicylic acid reagent (100 ml: 5% w/v dinitrosalicylic acid in 2M NaOH plus 250 ml: 60% w/v sodium potassium tartrate in water, made up to 500 ml with water) and heating for 5 min in vigorously boiling water. After heating, assay tubes were rapidly cooled to ambient temperature and absorbances at 540 nm measured spectrophotometrically. Suitable blanks and no-enzyme controls were included in the assay. The results are expressed as a percentage of the absorbances obtained in control incubations containing no heparin.
# [2] = test system: mammalian testicular hyaluronidase; test: Reducing sugar assay of mammalian testicular hyaluronidase preincubated with heparin; assay type: biochemical; details: heparin above 3 USP/ml; MTH 75 IU/ml; preincubated one hour at 25° C.
# Description: as §1, with “heparin. […] MTH (75 IU/ml) was preincubated for one hour at 25° C. with heparin (0 to 250 USP/ml) in 20 mM MES, 0.1M NaCl pH 5.0, buffer and then added (1:10 final dilution) to hyaluronate and incubated for a further one hour at 37° C. Activity was determined using the reducing sugar assay (described above) and is expressed as a percentage of controls without heparin. […]” for “heparin.”
# whole blood = test: Whole blood clotting time after incubation of heparin with or without leech hyaluronidase
# Description: Heparin (0-150 USP/ml) was incubated for one hour at […] either with or without leech hyaluronidase (50 IU/ml) and in 20 mM MES, 0.1M NaCl, pH 5.0 buffer; then whole blood was added to determine the effect on clottability.
# Rats = test: Indian ink spreading after subcutaneous injection in rats; assay type: in vivo, rat; details: heparin 250 to 2500 USP/ml with leech hyaluronidase
# Description: Leech hyaluronidase (100 IU/ml) was mixed 1:1 with Indian ink in 20 mM MES, 0.1M NaCl pH 5.0, buffer in the presence or absence of heparin (250 to 2500 USP/ml). Rats were injected subcutaneously with 50 microlitres of this mixture and spreading allowed to occur over a period of 1 to 3 hours. The rats were sacrificed and the skin removed for observation of the area of spreading.
# leech hyaluronidase [3] = test: Leech hyaluronidase activity with heparin, with and without hementin; assay type: biochemical; details: 60 min
# Description: as §1
# B) Leech hyaluronidase (75 IU/ml) was mixed with and without hementin (180 IU/ml) (where IU is defined as one microgram of fibrinogen incoagulated/min/37° C.) end incubated with heparin (1.5-1500 USP/ml) for one hour at 25° C. prior to addition to hyaluronic acid (2 mg/ml) and further incubation for one hour at 37° C. Reducing sugar levels were determined (see Example 1) and the results expressed as a percentage of controls containing no heparin. (Table 3).
# [4] = Clotting time of patient plasma before and after heparinisation; assay type: in vivo, human; details: patient plasma after heparinisation with 30,000 USP/24 h; 40 seconds before
# Description: B) Leech hyaluronidase (200 IU/ml) was preincubated for one hour at 25° C. with and without plasma and heparinised plasma in 20 mM MES, 0.1M NaCl, pH 5.0 buffer. Plasma was obtained from a patient before and after heparinisation with 30,000 USP/24 h resulting in an increase in the clotting time of 40 seconds to 80 seconds. Incubations were continued by addition to hyaluronic acid (see section A, above) and reducing sugars determined as above (Example 1).
# [5] = test system: mammalian testicular hyaluronidase; details: Mathews & Dorfman, Physiological Review, 35; cited from earlier work
# leech hyaluronidase [6] = test: Leech hyaluronidase activity in the presence of tPA with and without heparin; assay type: biochemical; details: tPA range of concentrations; presence or absence of heparin 200 USP/ml; FIG. 5
# Description: as §1
# A) Leech hyaluronidase (68 IU/ml) was mixed with and without heparin (200 USP/ml) and human tissue plasminogen activator (tPA) in a range of concentrations ([…]) and with hyaluronic acid (5 mg/ml) and incubated for 1 h at 37° C. Reducing sugars were determined (Example 1) and results expressed as a percentage of controls containing no tPA.
substance,measurement,setting,value
Heparin,"leech hyaluronidase activity, percentage of control incubations containing no heparin",leech hyaluronidase [1],no significant effect
same,"mammalian testicular hyaluronidase activity, percentage of controls without heparin",[2],completely inhibited
same,Whole Blood Clotting Time,"whole blood; Heparin 1.0 USP/ml, Leech Enzyme (50IU/ml)",14.5 min
same,Whole Blood Clotting Time,"whole blood; Heparin 1.0 USP/ml, without leech enzyme",14.5 min
same,Whole Blood Clotting Time,"whole blood; Heparin 2.5 USP/ml, Leech Enzyme (50IU/ml)",24.5 min
same,Whole Blood Clotting Time,"whole blood; Heparin 2.5 USP/ml, without leech enzyme",24.0 min
same,Whole Blood Clotting Time,"whole blood; Heparin 5 USP/ml, Leech Enzyme (50IU/ml)",NC (no clot formation before 20 minutes at 37° C.)
same,Whole Blood Clotting Time,"whole blood; Heparin 5 USP/ml, without leech enzyme",NC (no clot formation before 20 minutes at 37° C.)
same,Whole Blood Clotting Time,"whole blood; Heparin 10 USP/ml, Leech Enzyme (50IU/ml)",NC (no clot formation before 20 minutes at 37° C.)
same,Whole Blood Clotting Time,"whole blood; Heparin 10 USP/ml, without leech enzyme",NC (no clot formation before 20 minutes at 37° C.)
same,Whole Blood Clotting Time,"whole blood; Heparin 20 USP/ml, Leech Enzyme (50IU/ml)",NC (no clot formation before 20 minutes at 37° C.)
same,Whole Blood Clotting Time,"whole blood; Heparin 20 USP/ml, without leech enzyme",NC (no clot formation before 20 minutes at 37° C.)
same,effect of heparin on enzyme-induced ink spreading,Rats,not significantly affected
same,"leech hyaluronidase activity, % Control (no heparin)","leech hyaluronidase [3]; Heparin 1.5 USP/ml, With Hementin (180 IU/ml)",103%
same,"leech hyaluronidase activity, % Control (no heparin)","leech hyaluronidase [3]; Heparin 1.5 USP/ml, Without Hementin",97.5%
same,"leech hyaluronidase activity, % Control (no heparin)","leech hyaluronidase [3]; Heparin 15 USP/ml, With Hementin (180 IU/ml)",93.8%
same,"leech hyaluronidase activity, % Control (no heparin)","leech hyaluronidase [3]; Heparin 15 USP/ml, Without Hementin",100%
same,"leech hyaluronidase activity, % Control (no heparin)","leech hyaluronidase [3]; Heparin 150 USP/ml, With Hementin (180 IU/ml)",100%
same,"leech hyaluronidase activity, % Control (no heparin)","leech hyaluronidase [3]; Heparin 150 USP/ml, Without Hementin",103%
same,"leech hyaluronidase activity, % Control (no heparin)","leech hyaluronidase [3]; Heparin 1500 USP/ml, With Hementin (180 IU/ml)",109%
same,"leech hyaluronidase activity, % Control (no heparin)","leech hyaluronidase [3]; Heparin 1500 USP/ml, Without Hementin",103%
same,clotting time,[4],80 s
same,inhibition of mammalian testicular hyaluronidase by heparin,[5],inhibited competitively
"tPA: human tissue plasminogen activator, a clot-lytic agent","leech hyaluronidase activity, percentage of controls containing no tPA",leech hyaluronidase [6],no effect
